Experiments:
ZR-75-1 = test: Rhodamine 123 mitochondrial membrane potential, ZR-75-1; assay type: cell-based, human; details: 30 min after application, same scheme as H2DCFDA/DCFDA measurements
Method: (§1) Finally, the same experimental scheme as described above for H2DCFDA/DCFDA measurements was also used with Rhodamine 123. […] The same observation has been made for ZR-75-1.
The cells were seeded into 35-mm Nunc culture dishes (Thermo Scientific, USA) at 1.2 × 10^5 cells per dish and allowed to attach for 24 h. To monitor intracellular ROS in a time-dependent manner, the cells were incubated for 30 min with 10 μM of carboxy-H2DCFDA (Invitrogen, USA), then harvested with trypsin-EDTA and suspended in a fresh medium. After that GO-203 was added directly to the suspension and cell fluorescence was measured by flow cytometry at multiple time points during the following 2 hours. The same procedure was used for mitochondria-specific fluorescent dye Rhodamine 123 (Thermo Fisher Scientific, USA), which was added to a concentration of 5 μM. The complementary side scatter measurements were conducted using 488 nm laser light. In another series of experiments, we have used the related indicator of oxidative stress, H2DCFDA (Invitrogen, USA). The experiment started by adding GO-203 to the cell growth medium; then 10 min later 5 μM of H2DCFDA has been added. After 20 min incubations with H2DCFDA, the cells were harvested with trypsin-EDTA and suspended in a fresh medium. Cell fluorescence was then immediately measured by flow cytometry. […]

[1] = system: primary culture of human dermal fibroblasts (DF); test: MTS cell viability assay, dermal fibroblasts
Method: As a next step, we used MTS assay[27] to examine the effect of GO peptides on the viability of the four described cell cultures as a function of different treatment schemes. […] This treatment regimen is labeled 4 × 5 underneath the graph. Alternatively, we introduced 5 μM of peptide daily while exchanging the medium (denoted 4/5). Unlike the previous protocol, it avoids potential build-up of the peptide in the medium.
The treatment protocols are: 4 × 5 – four daily doses of 5 μM delivered without exchanging the growth medium; 4/5 – four daily doses of 5 μM delivered with exchanged growth medium; 1 × 5, 1 × 10, 1 × 15, and 1 × 20 – a single dose of 5, 10, 15, or 20 μM, respectively. MTS reagent was added to the wells 96 h after the first (and sometimes the only) application of the peptide and the optical density at 492 nm was measured to determine the fraction of the surviving cells.
As a next step, we set out to test the cytotoxic effect of these peptides on the normal cells.
Cell survival was measured using CellTiter 96 AQueous One Solution Cell Proliferation Assay (MTS test, Promega, USA). Cells have been seeded in a 96-well flat-bottom plate in 100 μl of culture medium (10^3 cells/well for A549, HT-1080, dermal fibroblasts and eMSC or 5 × 10^3 cells/well for ZR-75-1) and allowed to attach for 24 h. The starting amount of cells was chosen to account for their growth rate and degree of spreading such as to avoid excessive dilution in the beginning of the experiment or control cell overgrowth toward the end. After 24 h, 10 μl of peptide stock solution or PBS (control) were added to the wells. After 96 h, 20 μl of the MTS-reagent were added to each well and 1–2 h later optical density was measured at the wavelength 492 nm using the 96-well plate reader (Titertek Multiskan, Labsystems, Finland). All experiments were conducted in duplicate or triplicate.

HT-1080 cells [2] = test: FITC Annexin V / propidium iodide apoptosis assay, HT-1080; assay type: cell-based, human; details: 10 μM
Method: Already 2 h after administration of 10 μM dose, the system reaches a steady state with 18% of healthy cells, 17% of early apoptotic cells, and 58% of late apoptotic cells. It remains in this state for the entire period of observations, 24 h.
Figure 3 GO-203-induced apoptosis in HT-1080 and ZR-75-1 cells as assessed by FITC Annexin V (AnV) and propidium iodide (PI) double staining. (A–D) Flow cytometry histograms for the cells incubated for 4 h with 10 μM of GO-203 and the untreated (control) cells. (E–H) Apoptotic fractions in the GO-203-treated and untreated (control) cells as a function of incubation time and GO-203 concentration; color coding is explained in the legend. TEXT PRINTED IN THE PICTURE: (B) GO-203: HT-1080: IV.(1.90 %); HT-1080: III.(52.62 %); HT-1080: I.(19.45 %); HT-1080: II.(26.04 %) | (D) GO-203: ZR-75-1: IV.(8.19 %); ZR-75-1: III.(8.65 %); ZR-75-1: I.(37.84 %); ZR-75-1: II.(45.32 %)
The adherent cells were rinsed with PBS, harvested using trypsin-EDTA solution and suspended in the growth medium. To analyze cell cycle phase distribution, 200 μg/ml of saponin (Fluka, USA), 250 μg/ml RNase A, and 50 μg/ml of propidium iodide (both Sigma-Aldrich, USA) were added to each sample tube, thus obtaining DNA stain buffer. After 1 h incubation at room temperature, the samples were analyzed by flow cytometry. To detect apoptosis by flow cytometry, CellEvent Caspase-3/7 Green Flow Cytometry Assay Kit (Thermo Fisher Scientific, USA) and Annexin-V FITC conjugate (BD Biosciences, USA) in combination with propidium iodide have been employed following the manufacturer’s protocols.
Cell fluorescence was measured using CytoFLEX (Beckman Coulter, USA) flow cytometer equipped with 3 lasers (405, 488 and 633 nm). Cells were gated on FSC/SSC to remove debris. Mean fluorescence intensity from 10,000 cells was acquired.

HT-1080 cells [3] = test: Rhodamine 123 mitochondrial membrane potential, HT-1080; assay type: cell-based, human
Text: In broad terms, apoptosis is classified into two fundamental modes: mitochondrial pathway and death receptor pathway. In the former mechanism, apoptotic signals lead to a loss of mitochondrial membrane potential, termination of mitochondrial ATP synthesis, overproduction of reactive oxygen species (ROS) and their release into cytosol along with a number of pro-apoptotic proteins that are normally confined to the intermembrane space of the mitochondria. To determine whether this mechanism is relevant for GO-203-induced cell death, we have analyzed the time variation of mitochondrial membrane potential and cellular level of ROS over the time interval of 2 h following the addition of the peptide. Toward this goal, the cells were preloaded with Rhodamine 123 or carboxy-H2DCFDA fluorescent dyes, then washed, suspended in the growth medium, and treated with GO-203. The fluorescence was measured concurrently with the side angle light scatter.
Only at 90–100 min we observe a moderate decrease of the fluorescence signal from the treated cells, which indicates the drop in mitochondrial membrane potential. As discussed above, the onset of apoptosis in HT-1080 occurs considerably earlier than that. […] Therefore we assume that mitochondrial membrane permeabilization (MMP) occurs relatively late in the game and is unlikely to be a key element of the GO-203-induced apoptosis.
as §1
The cells were seeded into 35-mm Nunc culture dishes (Thermo Scientific, USA) at 1.2 × 10^5 cells per dish and allowed to attach for 24 h. […] After that GO-203 was added directly to the suspension and cell fluorescence was measured by flow cytometry at multiple time points during the following 2 hours. […] Cell fluorescence was then immediately measured by flow cytometry. […]

[4] = 4 h, representative plot Fig. 3B
[5] = suspended HT-1080, one-time 5 μM dose

[R]9CQCRRKN [GO-203, in clinical trials]
Mitochondrial membrane potential (Rhodamine 123) (ZR-75-1): fully maintained
Cell viability (MTS) ([1]; dermal fibroblasts, 1 × 5: single dose of 5 μM, 96 h): essentially inconsequential
Cell viability (MTS) ([1]; dermal fibroblasts, 4/5: four daily doses of 5 μM with exchanged growth medium, 96 h): inefficient
Cell viability (MTS) ([1]; dermal fibroblasts, 4 × 5: four daily doses of 5 μM without exchanging growth medium, OD 492 nm 96 h after first application): essentially complete cell death
Cell viability (MTS) ([1]; skin (dermal) fibroblasts, 1 × 10: single dose of 10 μM, 96 h): nearly wipes out
early apoptotic cells (Annexin V/PI) (HT-1080 cells [2]; 2 h after administration): 17%
late apoptotic cells (Annexin V/PI) (HT-1080 cells [2]; 2 h after administration): 58%
healthy cells (Annexin V/PI) (HT-1080 cells [2]; 2 h after administration (steady state up to 24 h)): 18%
quadrant I fraction (Annexin V/PI dot plot) (HT-1080 cells [2]; [4]): 19.45%
quadrant II fraction (Annexin V/PI dot plot) (HT-1080 cells [2]; [4]): 26.04%
quadrant III fraction (Annexin V/PI dot plot) (HT-1080 cells [2]; [4]): 52.62%
quadrant IV fraction (Annexin V/PI dot plot) (HT-1080 cells [2]; [4]): 1.90%
Mitochondrial membrane potential (Rhodamine 123) (HT-1080 cells [3]; HT-1080, 30 min after application, same scheme as H2DCFDA/DCFDA measurements): fully maintained
Time for which mitochondrial retention of Rhodamine 123 remains the same as control (HT-1080 cells [3]; [5]): at least 70 min
Time of moderate decrease of Rhodamine 123 fluorescence (drop in mitochondrial membrane potential) (HT-1080 cells [3]; [5]): 90 to 100 min
